Three compounds from patent US12479847B2 (DANA-FARBER CANCER INSTITUTE, INC., priority 2019, dated 2025) can be followed below.

Assay in all cases: KINOMEscan (ScanMAX) kinase profiling
What all share (type): binding

For assay [1], the target named is T1, panel of 468 kinases (Homo sapiens, UniProt Q9BZL6).
T1 construct: purchased KINOMEscan (ScanMAX) service
T1 sequence (Q9BZL6 1-878): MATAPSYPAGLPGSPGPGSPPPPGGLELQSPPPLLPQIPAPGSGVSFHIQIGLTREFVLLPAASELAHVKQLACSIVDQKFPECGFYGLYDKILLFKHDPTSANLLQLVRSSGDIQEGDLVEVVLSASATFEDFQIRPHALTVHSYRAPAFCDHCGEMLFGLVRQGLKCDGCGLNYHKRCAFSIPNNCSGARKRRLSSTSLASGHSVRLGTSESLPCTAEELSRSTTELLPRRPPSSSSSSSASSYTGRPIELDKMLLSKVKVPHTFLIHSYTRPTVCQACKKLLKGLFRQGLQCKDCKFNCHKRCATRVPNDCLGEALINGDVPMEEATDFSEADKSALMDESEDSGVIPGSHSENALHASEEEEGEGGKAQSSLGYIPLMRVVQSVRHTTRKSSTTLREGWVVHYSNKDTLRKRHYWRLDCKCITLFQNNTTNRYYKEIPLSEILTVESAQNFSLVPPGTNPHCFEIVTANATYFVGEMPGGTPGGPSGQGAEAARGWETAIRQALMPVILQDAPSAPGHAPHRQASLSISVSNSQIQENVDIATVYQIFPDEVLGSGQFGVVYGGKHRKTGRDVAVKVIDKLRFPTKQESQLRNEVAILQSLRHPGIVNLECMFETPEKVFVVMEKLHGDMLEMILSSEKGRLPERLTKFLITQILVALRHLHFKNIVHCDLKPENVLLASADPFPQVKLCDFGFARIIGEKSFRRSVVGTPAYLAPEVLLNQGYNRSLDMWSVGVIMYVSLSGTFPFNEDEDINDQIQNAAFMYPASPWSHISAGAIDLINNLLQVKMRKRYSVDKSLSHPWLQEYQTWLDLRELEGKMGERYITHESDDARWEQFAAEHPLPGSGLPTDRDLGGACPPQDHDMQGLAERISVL
As to conditions: PRKD2; 1 μM; read-out: % control.

The target of assay [2] is T2, panel of 468 kinases (Homo sapiens, UniProt P42336, I800L).
T2 construct: purchased KINOMEscan (ScanMAX) service
The note with it: PIK3CA(I800L); 1 μM; read-out: % control.

Assay [3] addresses T3, panel of 468 kinases (Homo sapiens, UniProt P46734).
T3 construct: purchased KINOMEscan (ScanMAX) service
T3 sequence (P46734 1-347): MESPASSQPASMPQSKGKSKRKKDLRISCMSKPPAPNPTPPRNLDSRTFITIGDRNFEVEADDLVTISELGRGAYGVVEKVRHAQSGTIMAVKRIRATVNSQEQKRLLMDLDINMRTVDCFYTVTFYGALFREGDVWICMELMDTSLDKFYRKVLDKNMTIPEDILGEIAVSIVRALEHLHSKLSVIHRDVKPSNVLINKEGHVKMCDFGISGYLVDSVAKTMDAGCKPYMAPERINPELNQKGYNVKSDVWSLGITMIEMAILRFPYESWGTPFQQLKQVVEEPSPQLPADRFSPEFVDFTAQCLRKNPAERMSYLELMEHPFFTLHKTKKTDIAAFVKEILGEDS
The note with it: MEK3; 1 μM; read-out: % control.

The target of assay [4] is T4, panel of 468 kinases (Homo sapiens, UniProt Q9HBY8).
T4 construct: purchased KINOMEscan (ScanMAX) service
T4 sequence (Q9HBY8 1-367): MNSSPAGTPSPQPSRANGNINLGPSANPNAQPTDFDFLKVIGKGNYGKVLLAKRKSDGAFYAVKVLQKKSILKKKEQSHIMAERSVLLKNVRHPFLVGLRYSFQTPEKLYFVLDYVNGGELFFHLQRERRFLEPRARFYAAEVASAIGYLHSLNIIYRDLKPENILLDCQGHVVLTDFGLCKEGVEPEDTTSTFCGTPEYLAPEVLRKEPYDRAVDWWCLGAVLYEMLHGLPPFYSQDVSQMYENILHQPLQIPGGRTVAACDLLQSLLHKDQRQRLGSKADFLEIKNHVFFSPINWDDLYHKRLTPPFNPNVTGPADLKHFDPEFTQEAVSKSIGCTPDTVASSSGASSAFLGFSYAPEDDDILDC
As to conditions: SGK2; 1 μM; read-out: % control.

Assay [5] deals with T5, panel of 468 kinases (Homo sapiens, UniProt Q9Y2I7).
T5 construct: purchased KINOMEscan (ScanMAX) service
As to conditions: PIKFYVE; 1 μM; read-out: % control.

Assay [6] addresses T6, panel of 468 kinases (Homo sapiens, UniProt P00533, L858R/T790M).
T6 construct: purchased KINOMEscan (ScanMAX) service
As to conditions: EGFR(L858R,T790M); 1 μM; read-out: % control.

Each structure is given as a SMILES string.

T2 sequence (P42336 whole entry I800L): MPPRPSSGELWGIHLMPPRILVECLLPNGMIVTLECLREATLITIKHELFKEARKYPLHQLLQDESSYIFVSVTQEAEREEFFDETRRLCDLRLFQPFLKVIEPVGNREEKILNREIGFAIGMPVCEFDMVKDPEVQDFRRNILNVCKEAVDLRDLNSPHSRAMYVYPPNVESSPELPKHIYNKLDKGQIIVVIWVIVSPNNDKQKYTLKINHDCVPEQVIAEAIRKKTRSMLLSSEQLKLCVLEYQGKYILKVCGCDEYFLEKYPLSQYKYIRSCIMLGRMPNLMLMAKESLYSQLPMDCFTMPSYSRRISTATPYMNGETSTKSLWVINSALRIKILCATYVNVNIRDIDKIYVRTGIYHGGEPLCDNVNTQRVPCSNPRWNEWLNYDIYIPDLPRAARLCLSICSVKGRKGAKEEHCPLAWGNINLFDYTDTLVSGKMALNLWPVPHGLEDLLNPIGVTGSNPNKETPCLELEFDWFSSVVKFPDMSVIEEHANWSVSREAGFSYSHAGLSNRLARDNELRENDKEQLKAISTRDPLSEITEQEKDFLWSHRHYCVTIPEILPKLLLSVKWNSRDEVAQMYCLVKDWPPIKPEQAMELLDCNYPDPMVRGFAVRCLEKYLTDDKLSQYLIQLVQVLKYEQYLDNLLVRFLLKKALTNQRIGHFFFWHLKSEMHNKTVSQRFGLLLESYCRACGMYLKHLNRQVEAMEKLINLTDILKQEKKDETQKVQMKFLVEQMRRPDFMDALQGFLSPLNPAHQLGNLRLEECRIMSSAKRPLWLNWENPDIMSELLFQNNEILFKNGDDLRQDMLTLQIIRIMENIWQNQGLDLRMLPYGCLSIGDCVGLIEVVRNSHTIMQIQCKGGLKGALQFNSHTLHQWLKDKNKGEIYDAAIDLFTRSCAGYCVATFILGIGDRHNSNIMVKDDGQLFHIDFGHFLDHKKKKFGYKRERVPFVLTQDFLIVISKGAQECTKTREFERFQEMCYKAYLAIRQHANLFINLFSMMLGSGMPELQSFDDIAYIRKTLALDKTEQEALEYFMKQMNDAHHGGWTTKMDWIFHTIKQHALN
T6 sequence (P00533 25-1210 T790M/L858R): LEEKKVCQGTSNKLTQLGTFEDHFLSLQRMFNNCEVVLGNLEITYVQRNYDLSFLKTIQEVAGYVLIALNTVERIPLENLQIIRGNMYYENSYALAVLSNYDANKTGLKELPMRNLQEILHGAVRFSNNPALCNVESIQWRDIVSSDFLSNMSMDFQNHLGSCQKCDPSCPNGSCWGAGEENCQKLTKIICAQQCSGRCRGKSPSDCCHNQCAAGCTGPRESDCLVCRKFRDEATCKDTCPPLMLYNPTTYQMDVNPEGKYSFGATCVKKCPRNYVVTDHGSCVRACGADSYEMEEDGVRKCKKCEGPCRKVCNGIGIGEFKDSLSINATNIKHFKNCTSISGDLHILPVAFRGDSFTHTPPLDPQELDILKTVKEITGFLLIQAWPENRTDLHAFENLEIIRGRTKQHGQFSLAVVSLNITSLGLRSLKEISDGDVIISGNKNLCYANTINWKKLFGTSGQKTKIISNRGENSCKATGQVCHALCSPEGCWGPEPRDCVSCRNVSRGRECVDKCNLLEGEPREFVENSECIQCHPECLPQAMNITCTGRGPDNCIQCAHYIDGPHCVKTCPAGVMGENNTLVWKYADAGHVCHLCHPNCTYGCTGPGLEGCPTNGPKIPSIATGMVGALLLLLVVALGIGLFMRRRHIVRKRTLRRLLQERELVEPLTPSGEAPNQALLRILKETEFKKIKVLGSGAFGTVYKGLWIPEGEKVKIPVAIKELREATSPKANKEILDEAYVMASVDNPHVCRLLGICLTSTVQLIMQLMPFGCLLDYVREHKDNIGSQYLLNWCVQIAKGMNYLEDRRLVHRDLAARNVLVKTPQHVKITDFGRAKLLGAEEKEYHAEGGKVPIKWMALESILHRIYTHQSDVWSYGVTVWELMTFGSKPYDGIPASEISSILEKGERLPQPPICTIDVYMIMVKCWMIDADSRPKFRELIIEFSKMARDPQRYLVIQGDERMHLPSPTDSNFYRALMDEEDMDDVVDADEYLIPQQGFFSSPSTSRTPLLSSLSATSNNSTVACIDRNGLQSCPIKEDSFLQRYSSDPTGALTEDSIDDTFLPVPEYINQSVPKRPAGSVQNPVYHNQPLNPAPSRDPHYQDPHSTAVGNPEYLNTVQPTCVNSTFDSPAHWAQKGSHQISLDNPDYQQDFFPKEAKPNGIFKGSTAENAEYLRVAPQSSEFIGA
T5 sequence (Q9Y2I7 whole entry): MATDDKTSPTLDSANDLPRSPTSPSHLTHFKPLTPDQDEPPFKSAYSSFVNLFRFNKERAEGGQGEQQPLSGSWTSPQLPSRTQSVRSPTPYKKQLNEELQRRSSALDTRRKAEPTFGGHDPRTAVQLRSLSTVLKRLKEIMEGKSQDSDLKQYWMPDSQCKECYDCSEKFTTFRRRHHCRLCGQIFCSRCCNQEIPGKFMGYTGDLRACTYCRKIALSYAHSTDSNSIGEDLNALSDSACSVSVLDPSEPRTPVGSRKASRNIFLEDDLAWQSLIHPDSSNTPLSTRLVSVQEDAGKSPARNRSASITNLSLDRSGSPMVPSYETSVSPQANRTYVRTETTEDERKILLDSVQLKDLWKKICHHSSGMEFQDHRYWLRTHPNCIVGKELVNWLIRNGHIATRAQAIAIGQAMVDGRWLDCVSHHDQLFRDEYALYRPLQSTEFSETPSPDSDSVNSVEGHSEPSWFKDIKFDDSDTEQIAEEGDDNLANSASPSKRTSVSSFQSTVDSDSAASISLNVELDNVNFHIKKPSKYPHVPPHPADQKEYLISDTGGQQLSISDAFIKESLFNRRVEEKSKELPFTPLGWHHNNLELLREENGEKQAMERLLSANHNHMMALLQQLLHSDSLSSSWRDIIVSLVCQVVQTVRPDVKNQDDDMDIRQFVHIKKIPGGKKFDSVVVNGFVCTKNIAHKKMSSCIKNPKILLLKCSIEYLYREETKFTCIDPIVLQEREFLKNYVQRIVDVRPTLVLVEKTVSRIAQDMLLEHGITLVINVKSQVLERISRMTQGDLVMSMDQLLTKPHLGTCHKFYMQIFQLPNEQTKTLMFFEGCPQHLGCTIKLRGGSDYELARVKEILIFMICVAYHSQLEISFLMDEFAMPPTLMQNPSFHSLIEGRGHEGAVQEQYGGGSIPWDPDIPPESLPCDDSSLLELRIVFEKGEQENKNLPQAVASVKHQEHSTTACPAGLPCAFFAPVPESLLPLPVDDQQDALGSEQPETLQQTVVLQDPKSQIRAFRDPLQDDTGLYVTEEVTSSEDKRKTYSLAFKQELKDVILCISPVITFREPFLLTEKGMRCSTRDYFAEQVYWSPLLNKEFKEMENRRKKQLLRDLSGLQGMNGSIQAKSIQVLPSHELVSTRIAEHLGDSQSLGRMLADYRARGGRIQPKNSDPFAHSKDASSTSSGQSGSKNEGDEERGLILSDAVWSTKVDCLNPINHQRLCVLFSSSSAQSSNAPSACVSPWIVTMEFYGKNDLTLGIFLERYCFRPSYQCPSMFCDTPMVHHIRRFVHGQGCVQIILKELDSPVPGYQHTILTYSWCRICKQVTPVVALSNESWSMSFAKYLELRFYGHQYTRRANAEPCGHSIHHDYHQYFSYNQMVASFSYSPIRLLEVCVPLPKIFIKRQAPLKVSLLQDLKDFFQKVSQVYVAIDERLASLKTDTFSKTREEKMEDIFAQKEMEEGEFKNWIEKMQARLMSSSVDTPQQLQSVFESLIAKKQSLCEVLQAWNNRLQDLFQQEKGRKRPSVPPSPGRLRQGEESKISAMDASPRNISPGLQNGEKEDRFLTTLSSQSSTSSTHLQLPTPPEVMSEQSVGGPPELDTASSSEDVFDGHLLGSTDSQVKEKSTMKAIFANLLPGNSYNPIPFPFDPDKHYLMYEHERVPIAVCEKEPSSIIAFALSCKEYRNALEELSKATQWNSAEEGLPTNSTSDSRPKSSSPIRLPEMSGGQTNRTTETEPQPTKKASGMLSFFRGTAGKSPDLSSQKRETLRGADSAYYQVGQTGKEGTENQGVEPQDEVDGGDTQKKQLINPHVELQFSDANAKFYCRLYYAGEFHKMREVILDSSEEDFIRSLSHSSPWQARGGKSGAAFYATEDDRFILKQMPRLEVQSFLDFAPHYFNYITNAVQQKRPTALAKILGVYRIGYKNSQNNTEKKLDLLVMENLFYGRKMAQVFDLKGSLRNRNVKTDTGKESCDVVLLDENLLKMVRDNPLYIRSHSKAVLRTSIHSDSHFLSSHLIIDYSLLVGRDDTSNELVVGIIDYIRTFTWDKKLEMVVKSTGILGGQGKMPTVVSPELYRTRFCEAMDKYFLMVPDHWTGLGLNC

With `CNc1nc(Nc2ccc(C(=O)N3CCC(N4CCOCC4)CC3)c3c2OCO3)nc2[nH]cc(Cl)c12` [Compound 75, (7-((5-chloro-4-(methylamino)-7H-pyrrolo[2,3-d]pyrimidin-2-yl)amino)benzo[d][1,3]dioxol-4-yl)(4-morpholinopiperidin-1-yl)methanone], the remaining binding at 1 µM stood at 2.2% at panel of 468 kinases [1]; 87% at panel of 468 kinases [2]; 2.4% at panel of 468 kinases [3]; 37% on panel of 468 kinases [4]; 72% on panel of 468 kinases [5]; 45% at panel of 468 kinases [6].
For `CNc1nc(Nc2ccc(P3(=O)CCN(C4CCOCC4)CC3)cc2OC)nc2[nH]cc(Cl)c12` [Compound 77, 4-(4-((5-chloro-4-(methylamino)-7H-pyrrolo[2,3-d]pyrimidin-2-yl)amino)-3-methoxyphenyl)-1-(tetrahydro-2H-pyran-4-yl)-1,4-azaphosphinane 4-oxide], the remaining binding at 1 µM on panel of 468 kinases [1] was determined as 14%; on panel of 468 kinases [2], 69%; at panel of 468 kinases [3], 9.4%; on panel of 468 kinases [4], 87%; at panel of 468 kinases [5] it was 70%; on panel of 468 kinases [6], 42%.
With `CNc1nc(Nc2ccc(S(=O)(=O)N3CCC(N4CCOCC4)CC3)cc2OC)nc2[nH]cc(Cl)c12` [Compound 12, 5-chloro-N2-(2-methoxy-4-((4-morpholinopiperidin-1-yl)sulfonyl)phenyl)-N4-methyl-7H-pyrrolo[2,3-d]pyrimidine-2,4-diamine], the remaining binding at 1 µM is 37% on panel of 468 kinases [1]; 74% at panel of 468 kinases [2]; 26% on panel of 468 kinases [3]; 95% on panel of 468 kinases [4]; 64% on panel of 468 kinases [5]; 66% on panel of 468 kinases [6].
